Key:
CCR5 [1] = biological target: T1, CCR5 (Homo sapiens, UniProt P51681); experiment: Human CCR5 receptor-ligand binding assay (125I RANTES, CHO-Gα16-hCCR5 cells); design: expressed in transfected cells
Experimental: The construct was transfected into CHO-Gα16 cells by using Fugene Reagent (Roche).
Adherent cells in […] tissue culture flask (ca. 90% confluent) were harvested using 1 mM EDTA in PBS (phosphate-buffered saline) without Ca^2+ and Mg^2+. Cells were washed twice with PBS containing no Ca^2+ and Mg^2+.
Eighty μl CHO-Gα16-hCCR5 (1×10^6/mL) cells were added to 96 well plates.
The compound dilutions were made in PBS, 1% BSA. Total reaction volume was 100 μl per well. The test compounds were added to the cells prior to the addition of radioligand.
After incubation, the cells were harvested onto GF/C filter plates using Packard cell harvester. Filters were pretreated with 0.3% PEI/0.2% BSA for 30 min. The filter plate was washed rapidly 5 times with 25 mM HEPES, 500 mM NaCl, 1 mM CaCl2 and 5 mM MgCl2 adjusted to pH 7.1. Plates were dried in oven (70° C.) for 20 min, added with 40 μl scintillation fluid and sealed with Packard TopSeal-A. Packard Top Count was used to measure of the radioactivity for 1 min per well.
Total binding was determined with control wells added with radioisotope and buffer and the non-specific binding was determined using an excess cold RANTES to some of the control wells. Specific binding was determined by subtracting the non-specific form total binding. […] IC50 values were determined using varying concentrations of the test ligand in triplicates and the data was analyzed using GraphPad Prism (GraphPad, San Diego, Calif.).

NLBal pseudotyped HIV-1 = experiment: microbe, parasite or virus in culture; format: cell-based; conditions: Human immunodeficiency virus 1, JC53BL, 72 h
Experimental: The sensitivity of a recombinant HIV-1 virus pseudotyped with the envelope proteins of the CCR5-tropic virus NLBal to test compounds was determined in a Luciferase reporter assay using JC53BL cells. NLBal pseudotyped HIV-1 was generated by calcium phosphate transfection of 293T cells (ATCC) with equal amounts of DNA of an envelope-deleted HIV-1 plasmid and of a NLBal envelope expression plasmid. The media (DMEM, 10% fetal bovine serum, 1% Penicillin/streptomycin, 1% Glutamine, all Gibco) was changed 16 h post-transfection and virus containing supernatant was harvested 48 h post-transfection. To determine the sensitivity of NLBal pseudotyped HIV-1, 25.000 JC53BL cells (NIH AIDS Reagent Program) were infected with NLBal pseudotyped HIV-1 in presence of a drug gradient in white 96 well plates (Greiner Bio-one). The volume was adjusted to 200 μL using assay media (DMEM, 10% fetal bovine serum, 1% Penicillin/streptomycin, 1% Glutamine). After incubation at 37° C., 90% relative humidity, 5% CO2 for 3 days, 50 μL of Steady-Glo® Luciferase reagent (Promega) was added, incubated for 5 min at RT and luminescence was measured using a luminometer (Luminoskan, Thermo). The 50% and 90% inhibitory concentrations were calculated using Microsoft XL Fit 4 software.

CCR5 [2] = biological target: T1, CCR5; experiment: CCR5-mediated CCF (cell-cell fusion) assay, Hela-R5 / CEM-NKr-CCR5-Luc, luciferase readout; format: cell-based; design: host or cells: CEM-NKr-CCR5-Luc cells; conditions: 24 hrs co-culture
Experimental: The capacity for novel compounds of the present invention to bind to the CCR5 receptor and thereby antagonize CCR5 function can be evaluated with assay systems known in the art. The capacity of compounds of the present invention to inhibit infection of CD4^+/CCR5^+ expressing cells can be determined using a cell-cell fusion assay as described in example 8 or an antiviral assay as described in example 9.
CCF assay was performed as described before (C. Ji, J. Zhang, N. Cammack and S. Sankuratri, J. Biomol. Screen. 2006 11(6):652-663). Hela-R5 cells (express gp160 from R5-tropic virus and HIV-1 Tat) were plated in 384 well white culture plates (BD Bioscience, Palo Alto, Calif.) at […] per well in phenol red-free Dulbecco's Modified Eagle Medium (DMEM) supplemented with 10% FBS, 1× Pen-Strep, 300 μg/mL G418, 100 μg/mL hygromycin, and 1 μg/mL Doxycycline (Dox) (BD Bioscience, Palo Alto, Calif.), using Multimek (Beckman, Fullerton, Calif.) and incubated at 37° C. overnight to induce the expression of gp160. Ten μL diluted compounds in medium containing 5% DMSO were added to the cells, followed by the addition of CEM-NKr-CCR5-Luc (obtained from NIH AIDS Research & Reference Reagents Program) that expresses CD4 and CCR5 and carries a […] long terminal repeat (LTR)-driven luciferase reporter gene at 1.5×10^4 cells/15 μL/well and incubated for 24 hrs. At the end of co-culture, 15 μL of Steady-Glo luciferase substrate was added into each well, and the cultures were sealed and gently shaken for 45 min. The luciferase activity were measured for 10 sec per well as luminescence by using 16-channel TopCount NXT (PerkinElmer, Shelton, CT) with 10 min dark adaptation and the readout is count per second (CPS). For the drug interaction experiments, small molecule compounds or antibodies were serially diluted in serum-free and phenol red-free RPMI containing 5% DMSO (CalBiochem, La Jolla, Calif.) and 1× Pen-Strep. Five μL each of the two diluted compound or mAb to be tested for drug-drug interactions were added to the Hela-R5 cells right before the addition of target cells.

[3] = system: collagen-induced arthritis; conditions: collagen-induced arthritis model; cited from earlier work
HIV = conditions: cited from earlier work
[4] = specific 125I RANTES binding, CHO-Gα16-hCCR5 cells, read-out: IC50

T1 sequence (P51681 whole entry): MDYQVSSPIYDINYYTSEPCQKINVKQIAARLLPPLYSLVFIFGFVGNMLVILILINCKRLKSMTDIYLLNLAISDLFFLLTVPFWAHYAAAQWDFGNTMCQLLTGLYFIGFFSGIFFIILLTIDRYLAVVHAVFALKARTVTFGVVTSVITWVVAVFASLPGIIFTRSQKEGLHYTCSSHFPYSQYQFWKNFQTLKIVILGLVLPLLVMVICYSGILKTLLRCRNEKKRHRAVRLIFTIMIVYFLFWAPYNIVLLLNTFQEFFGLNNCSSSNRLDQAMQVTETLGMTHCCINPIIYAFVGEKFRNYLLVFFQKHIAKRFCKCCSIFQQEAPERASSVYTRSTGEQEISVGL

CCCC[C@H]1CN(CC2COC3OCCC23)C(=O)OC12CCN(C1(C)CCN(C(=O)c3c(C)ncnc3C)CC1)CC2 (single isomer, unassigned) [II-6]
IC50 (CCR5 [1]; [4]): 38 nM

CCCCC1CN(C[C@H]2CC[C@H](OC)CC2)C(=O)OC12CCN(C1(C)CCN(C(=O)c3c(C)ncnc3C)CC1)CC2 (stereo partly drawn) [Compound I-3, 5-Butyl-9-[1-(4,6-dimethyl-pyrimidine-5-carbonyl)-4-methyl-piperidin-4-yl]-3-(trans-4-methoxy-cyclohexylmethyl)-1-oxa-3,9-diaza-spiro[5.5]undecan-2-one]
melting point: 150.8 to 152.9 °C

CCCCC1CN(C[C@H]2CC[C@H](OCC)CC2)C(=O)OC12CCN(C1(C)CCN(C(=O)c3c(C)ncnc3C)CC1)CC2 (stereo partly drawn) [Compound I-7, 5-Butyl-9-[1-(4,6-dimethyl-pyrimidine-5-carbonyl)-4-methyl-piperidin-4-yl]-3-(trans-4-ethoxy-cyclohexylmethyl)-1-oxa-3,9-diaza-spiro[5.5]undecan-2-one]
melting point: 188.3 to 189.7 °C

CCCCC1CN(C[C@H]2CC[C@@H](OCOC)CC2)C(=O)OC12CCN(C1(C)CCN(C(=O)c3c(C)ncnc3C)CC1)CC2 (stereo partly drawn) [Compound I-8, 5-Butyl-9-[1-(4,6-dimethyl-pyrimidine-5-carbonyl)-4-methyl-piperidin-4-yl]-3-(cis-4-methoxymethoxy-cyclohexylmethyl)-1-oxa-3,9-diaza-spiro[5.5]undecan-2-one]
IC50 (NLBal pseudotyped HIV-1): 5.2 nM

CCCC[C@H]1CN(C[C@H]2[C@@H]3COC[C@@H]32)C(=O)OC12CCN(C1(C)CCN(C(=O)c3c(C)cc(C(F)F)nc3C)CC1)CC2 [II-4]
IC50 (CCR5 [1]; [4]): 10.8 nM

CCCC[C@H]1CN(C[C@H]2COCCO2)C(=O)OC12CCN(C1(C)CCN(C(=O)c3c(C)cc(C#N)nc3C)CC1)CC2 [II-10]
IC50 (NLBal pseudotyped HIV-1): 2.6 nM
IC50 (CCR5 [1]; [4]): 17.2 nM
IC50 (CCR5 [2]): 1 nM

CCCCC1CN(CC2CCN(C(C)=O)CC2)C(=O)OC12CCN(C1(C)CCN(C(=O)c3c(C)ncnc3C)CC1)CC2 (stereo not shown) [III-1, 3-(1-Acetyl-piperidin-4-ylmethyl)-5-butyl-9-[1-(4,6-dimethyl-pyrimidine-5-carbonyl)-4-methyl-piperidin-4-yl]-1-oxa-3,9-diaza-spiro[5.5]undecan-2-one]
IC50 (CCR5 [2]): 25.2 nM

CCCCC1CN(CC2CCCN(C(C)=O)C2)C(=O)OC12CCN(C1(C)CCN(C(=O)c3c(C)ncnc3C)CC1)CC2 (stereo not shown) [III-2]
IC50 (CCR5 [2]): 17.4 nM

CCCC[C@H]1CN(CC2CCN(C(=O)OC)CC2)C(=O)OC12CCN(C1(C)CCN(C(=O)c3c(C)ncnc3C)CC1)CC2 [III-6]
IC50 (CCR5 [1]; [4]): 46.5 nM

CCCC[C@H]1CN(CC2CCN(CC(F)F)CC2)C(=O)OC12CCN(C1(C)CCN(C(=O)c3c(C)cc(C#N)nc3C)CC1)CC2 [III-12]
IC50 (CCR5 [1]): 49.4 nM

CCCC[C@H]1CN(C[C@H]2[C@@H]3CN(C(=O)OC)C[C@@H]32)C(=O)OC12CCN(C1(C)CCN(C(=O)c3c(C)noc3C(F)(F)F)CC1)CC2 [III-20]
IC50 (NLBal pseudotyped HIV-1): 3 nM
IC50 (CCR5 [1]; [4]): 14 nM
IC50 (CCR5 [2]): < 2.5 nM

CCCC[C@H]1CN(C[C@H]2C[C@H]3CC[C@@H](C2)N3C(=O)OC)C(=O)OC12CCN(C1(C)CCN(C(=O)c3c(C)ncnc3C)CC1)CC2 [III-22]
IC50 (NLBal pseudotyped HIV-1): 2.2 nM
IC50 (CCR5 [1]; [4]): 21.2 nM
IC50 (CCR5 [2]): 3 nM

CCCC[C@H]1CN(CC2CCN(S(C)(=O)=O)CC2)C(=O)OC12CCN(C1(C)CCN(C(=O)c3c(C)noc3C(F)(F)F)CC1)CC2 [III-23]
IC50 (NLBal pseudotyped HIV-1): 6 nM
IC50 (CCR5 [1]; [4]): 38.8 nM
IC50 (CCR5 [2]): < 2.5 nM

CCCC[C@H]1CN(C2CCC(F)(F)CC2)C(=O)OC12CCN(C1(C)CCN(C(=O)c3c(C)ncnc3C)CC1)CC2 [IV-7, (S)-5-Butyl-3-(4,4-difluoro-cyclohexyl)-9-[1-(4,6-dimethyl-pyrimidine-5-carbonyl)-4-methyl-piperidin-4-yl]-1-oxa-3,9-diaza-spiro[5.5]undecan-2-one]
IC50 (CCR5 [1]; [4]): 19.2 nM

Cc1ccc(-c2ccc3c(c2)C=C(C(=O)Nc2ccc(C[N+](C)(C)C4CCOCC4)cc2)CCC3)cc1.[Cl-] [TAK-779]
incidence and severity of arthritis [3]: reduce both the incidence and severity of arthritis
infiltration of inflammatory CCR5+ T-cells into the joint [3]: inhibited

B1: RANTES: CC chemokine, naturally occurring ligand that can stimulate the CCR5 receptor (protein, UniProt P13501 24-91, looked up)
C-C motif chemokine 5: SPYSSDTTPCCFAYIARPLPRAHIKEYFYTSGKCSNPAVVFVTRKNRQVCANPEKKWVREYINSLEMS
HIV entry into the cells (HIV): block HIV entry into the cells
